Results published in patent US8871812B2, “Therapeutic regimen comprising PEG-interferon, ribavirin and VX-950 for the treatment of hepatitis” (priority 2008, dated 2014).

Tests used:
[1] = male, human, in vivo
Experimental: VX-950 was examined in a randomized, double-blind, placebo-controlled single-dose escalation study. 25 healthy male volunteers were enrolled and each received multiple single doses of VX-950 (at least 7 days apart, 3 doses of VX-950 at increasing dose levels) and 1 dose of placebo.
A dose escalation scheme was used that combined dose doubling and modified Fibonacci to be aggressive in the lower dose range and conservative in the higher dose range.
A pharmacokinetics analysis was performed using the statistical moment approach.

HCV genotype 1 = experiment: 14-day multiple-dose study in HCV genotype 1 subjects: HCV RNA (study VX04-950-101); format: in vivo, human
Experimental: (§1) Accordingly, applicants determined the changes in serum neopterin concentration as a marker of monocyte/macrophage activity during administration of an inhibitor of (HCV) NS3·4A protease. As described herein, VX-950 was administered for 14 days in a randomized, double blind, placebo controlled, multiple-dose study in 34 patients infected with HCV genotype 1. Patients received VX-950 450 mg q8h (n=10), 750 mg q8h (n=8), 1250 mg q12h (n=10), or placebo (n=6). Serum neopterin concentrations were measured by a quantitative competitive ELISA (ELItest® Neopterin, Brahms, Hennigsdorf, Germany) at pretreatment, at day 7 and 14, and at day 10 of follow-up. The lower limit of detection (LLD) was 2 nmol/I. HCV RNA was assessed at frequent intervals during the study by real-time PCR (COBAS TAQMAN™ HCV Test; linear dynamic range of 3.0 ×10^1 to 2.0 ×10^8 HCV RNA IU/ml; LLD of 10 HCV RNA IU/ml; Roche Diagnostics, Branchburg, N.J.).
All other 34 subjects completed the study.
The HCV positive subjects were tested post-treatment to monitor HCV RNA levels' return to baseline.

NS3 protease = experiment: In vitro cleavage of TRIF; format: biochemical, HCV
From the text: Furthermore, NS3/4A is known to be involved in evasion of innate defenses, by e.g., TRIF-dependent mechanisms (as well as viral polyprotein processing). This immune evasion leads to viral persistence. Accordingly, a compound that inhibits both viral polyprotein processing and evasion of innate defenses is desirable.
TRIF binds to non-prime side of the NS3 protease active site. VX-950 binds to the same non-prime side of the active site as TRIF and blocks TRIP cleavage.

[2] = test system: alanine aminotransferase (ALT); experiment: Serum ALT level during 14-day VX-950 dosing; format: in vivo, human; conditions: all groups, elevated at baseline
From the text: The serum alanine aminotransferase (ALT) level can be measured using commercially available methods. Mean ALT levels, elevated at baseline, decreased during dosing in all groups. Mean ALT levels increased, returned toward baseline, in all dose groups during follow up.

neopterin = experiment: Serum neopterin concentration (competitive ELISA) during 14-day VX-950 dosing; format: in vivo, human; conditions: 450 mg q8h and 1250 mg q12h dose groups, versus 750 mg q8h
Experimental: as §1

[3] = Oral bioavailability and plasma trough levels of VX-950; format: in vivo
From the text: The trough level is the concentration that a drug drops down to in plasma just before next dose (i.e., the minimum concentration between doses). It is important, particularly in viral diseases, to maintain drug levels above a certain concentration to maintain appropriate inhibition of viral replication.
Accordingly, preferred pharmaceutical compositions of this invention are formulated for oral administration.

[4] = C208 Phase 2 study: safety, tolerability and discontinuations
[5] = TVR 750 mg q8h + Peg-IFN alfa-2a + RBV (n = 40)
[6] = TVR 750 mg q8h + Peg-IFN alfa-2b + RBV (n = 42)
[7] = TVR 1125 mg q12h + Peg-IFN alfa-2a + RBV (n = 40)
[8] = TVR 1125 mg q12h + Peg-IFN alfa-2b + RBV (n = 39)

SMILES: CCC[C@H](NC(=O)[C@@H]1[C@H]2CCC[C@H]2CN1C(=O)[C@@H](NC(=O)[C@@H](NC(=O)c1cnccn1)C1CCCCC1)C(C)(C)C)C(=O)C(=O)NC1CC1 [VX-950]
- VX-950 eliminated unchanged in the urine [1]: Less than 2%
- Subjects with maximum change from baseline in HCV RNA >−1 to <0 log10 IU/mL (HCV genotype 1; 450 mg q8h, 14 days (n = 10)): 0 n (%)
- Subjects with maximum change from baseline in HCV RNA >−2 to ≦−1 log10 IU/mL (HCV genotype 1; 450 mg q8h, 14 days (n = 10)): 0 n (%)
- Subjects with maximum change from baseline in HCV RNA >−3 to ≦−2 log10 IU/mL (HCV genotype 1; 450 mg q8h, 14 days (n = 10)): 1 (10.0) n (%)
- Subjects with maximum change from baseline in HCV RNA >−4 to ≦−3 log10 IU/mL (HCV genotype 1; 450 mg q8h, 14 days (n = 10)): 7 (70.0) n (%)
- Subjects with maximum change from baseline in HCV RNA >−5 to ≦−4 log10 IU/mL (HCV genotype 1; 450 mg q8h, 14 days (n = 10)): 0 n (%)
- Subjects with maximum change from baseline in HCV RNA ≧−5 log10 IU/mL (HCV genotype 1; 450 mg q8h, 14 days (n = 10)): 2 (20.0) n (%)
- Subjects with maximum change from baseline in HCV RNA >−1 to <0 log10 IU/mL (HCV genotype 1; 750 mg q8h, 14 days (n = 8)): 0 n (%)
- Subjects with maximum change from baseline in HCV RNA >−2 to ≦−1 log10 IU/mL (HCV genotype 1; 750 mg q8h, 14 days (n = 8)): 0 n (%)
- Subjects with maximum change from baseline in HCV RNA >−3 to ≦−2 log10 IU/mL (HCV genotype 1; 750 mg q8h, 14 days (n = 8)): 0 n (%)
- Subjects with maximum change from baseline in HCV RNA >−4 to ≦−3 log10 IU/mL (HCV genotype 1; 750 mg q8h, 14 days (n = 8)): 3 (37.5) n (%)
- Subjects with maximum change from baseline in HCV RNA >−5 to ≦−4 log10 IU/mL (HCV genotype 1; 750 mg q8h, 14 days (n = 8)): 3 (37.5) n (%)
- Subjects with maximum change from baseline in HCV RNA ≧−5 log10 IU/mL (HCV genotype 1; 750 mg q8h, 14 days (n = 8)): 2 (25.0) n (%)
- Subjects with maximum change from baseline in HCV RNA >−1 to <0 log10 IU/mL (HCV genotype 1; 1250 mg q12h, 14 days (n = 10)): 0 n (%)
- Subjects with maximum change from baseline in HCV RNA >−2 to ≦−1 log10 IU/mL (HCV genotype 1; 1250 mg q12h, 14 days (n = 10)): 0 n (%)
- Subjects with maximum change from baseline in HCV RNA >−3 to ≦−2 log10 IU/mL (HCV genotype 1; 1250 mg q12h, 14 days (n = 10)): 1 (10.0) n (%)
- Subjects with maximum change from baseline in HCV RNA >−4 to ≦−3 log10 IU/mL (HCV genotype 1; 1250 mg q12h, 14 days (n = 10)): 9 (90.0) n (%)
- Subjects with maximum change from baseline in HCV RNA >−5 to ≦−4 log10 IU/mL (HCV genotype 1; 1250 mg q12h, 14 days (n = 10)): 0 n (%)
- Subjects with maximum change from baseline in HCV RNA ≧−5 log10 IU/mL (HCV genotype 1; 1250 mg q12h, 14 days (n = 10)): 0 n (%)
- Subjects with a 3 log10 reduction in HCV-RNA (HCV genotype 1; within the first three days of treatment, of the 28 subjects receiving VX-950): 26
- cleavage of TRIF (NS3 protease): inhibits in vitro cleavage of TRIF
- Mean ALT levels [2]: decreased
- change in mean neopterin levels (neopterin): decreases in mean neopterin levels were smaller
- Plasma trough levels ([3]; 750 mg every 8 hours): higher trough levels
- Oral bioavailability ([3]; in vivo, po): orally bioavailable
- AE: Anemia [4, 5]: 18 (45) n (%)
- AE: Asthenia [4, 5]: 11 (28) n (%)
- AE: Decreased appetite [4, 5]: 8 (20) n (%)
- AE: Diarrhea [4, 5]: 10 (25) n (%)
- AE: Fatigue [4, 5]: 15 (38) n (%)
- AE: Headache [4, 5]: 13 (33) n (%)
- AE: Influenza-like illness [4, 5]: 15 (38) n (%)
- AE: Nausea [4, 5]: 18 (45) n (%)
- AE: Pruritus [4, 5]: 16 (40) n (%)
- AE: Pyrexia [4, 5]: 8 (20) n (%)
- AE: Rash [4, 5]: 26 (65) n (%)
- AE: Vomiting [4, 5]: 7 (18) n (%)
- AE: Anemia [4, 6]: 14 (33) n (%)
- AE: Asthenia [4, 6]: 16 (38) n (%)
- AE: Decreased appetite [4, 6]: 4 (10) n (%)
- AE: Diarrhea [4, 6]: 9 (21) n (%)
- AE: Fatigue [4, 6]: 15 (36) n (%)
- AE: Headache [4, 6]: 18 (43) n (%)
- AE: Influenza-like illness [4, 6]: 19 (45) n (%)
- AE: Nausea [4, 6]: 14 (33) n (%)
- AE: Pruritus [4, 6]: 21 (50) n (%)
- AE: Pyrexia [4, 6]: 14 (33) n (%)
- AE: Rash [4, 6]: 15 (36) n (%)
- AE: Vomiting [4, 6]: 5 (12) n (%)
- AE: Anemia [4, 7]: 14 (35) n (%)
- AE: Asthenia [4, 7]: 7 (18) n (%)
- AE: Decreased appetite [4, 7]: 6 (15) n (%)
- AE: Diarrhea [4, 7]: 12 (30) n (%)
- AE: Fatigue [4, 7]: 14 (35) n (%)
- AE: Headache [4, 7]: 13 (33) n (%)
- AE: Influenza-like illness [4, 7]: 11 (28) n (%)
- AE: Nausea [4, 7]: 16 (40) n (%)
- AE: Pruritus [4, 7]: 19 (48) n (%)
- AE: Pyrexia [4, 7]: 8 (20) n (%)
- AE: Rash [4, 7]: 16 (40) n (%)
- AE: Vomiting [4, 7]: 7 (18) n (%)
- AE: Anemia [4, 8]: 19 (49) n (%)
- AE: Asthenia [4, 8]: 14 (36) n (%)
- AE: Decreased appetite [4, 8]: 15 (39) n (%)
- AE: Diarrhea [4, 8]: 13 (33) n (%)
- AE: Fatigue [4, 8]: 15 (39) n (%)
- AE: Headache [4, 8]: 16 (41) n (%)
- AE: Influenza-like illness [4, 8]: 20 (51) n (%)
- AE: Nausea [4, 8]: 22 (56) n (%)
- AE: Pruritus [4, 8]: 22 (56) n (%)
- AE: Pyrexia [4, 8]: 11 (28) n (%)
- AE: Rash [4, 8]: 14 (36) n (%)
- AE: Vomiting [4, 8]: 12 (31) n (%)
- electrocardiographic or vital signs parameters ([4]; all T/PR arms): No relevant changes
